Active and inactive are the calls of the source. The rule behind the calls is not given here.
Tests used:
Bos taurus [1] = species on record: Bos taurus; assay: Binding affinity to calf thymus GC-rich duplex DNA assessed as induction of ellipticity at 25 to 200 uM in pH 7 phosphate buffer by circular dichroism method
Calf thymus DNA [2] = assay: Binding affinity to calf thymus duplex DNA assessed as induction of ellipticity at 25 to 200 uM in pH 8.9 phosphate buffer by circular dichroism method; type: nucleic-acid assay; conditions: Bos taurus
Calf thymus DNA [3] = assay: Binding affinity to calf thymus duplex DNA assessed as induction of hyperchromic shift at 257 nanometer at 50 uM in pH 7 phosphate buffer by UV-vis spectrophotometric analysis; type: nucleic-acid assay; conditions: Bos taurus
Bos taurus [4] = species on record: Bos taurus; assay: Binding affinity to calf thymus AT-rich duplex DNA assessed as induction of ellipticity at 25 to 200 uM in pH 7 phosphate buffer by circular dichroism method
Calf thymus DNA [5] = assay: Binding affinity to calf thymus duplex DNA assessed as change in melting temperature at 50 uM in pH 7 phosphate buffer by UV-vis spectrophotometric analysis; type: nucleic-acid assay; conditions: Bos taurus
Calf thymus DNA [6] = assay: Binding affinity to calf thymus duplex DNA assessed as induction of red shift in soret peak at 50 uM in pH 8.9 phosphate buffer by UV-vis spectrophotometric analysis; type: nucleic-acid assay; conditions: Bos taurus
Bos taurus [7] = species on record: Bos taurus; assay: Binding affinity to calf thymus GC-rich duplex DNA assessed as induction of hyperchromicity at 25 to 200 uM in pH 7 phosphate buffer by circular dichroism method
Calf thymus DNA [8] = assay: Binding affinity to calf thymus duplex DNA assessed as induction of ellipticity at 25 to 200 uM in pH 7 phosphate buffer in presence of 0.1 M NaCl by circular dichroism method; type: nucleic-acid assay; conditions: Bos taurus
Calf thymus DNA [9] = assay: Binding affinity to calf thymus duplex DNA assessed as increase in melting temperature by differential scanning calorimetry; type: nucleic-acid assay; conditions: Bos taurus
Calf thymus DNA [10] = assay: Binding affinity to calf thymus duplex DNA assessed as induction of ellipticity at 349 nanometer at 25 to 200 uM in pH 7 phosphate buffer by circular dichroism method; type: nucleic-acid assay; conditions: Bos taurus
Calf thymus DNA [11] = assay: Binding affinity to calf thymus duplex DNA assessed as induction of ellipticity at 25 to 200 uM in pH 5.4 phosphate buffer by circular dichroism method; type: nucleic-acid assay; conditions: Bos taurus
Calf thymus DNA [12] = assay: Binding affinity to calf thymus duplex DNA assessed as induction of hyperchromicity at 280 nanometer at 25 to 200 uM in pH 7 phosphate buffer by circular dichroism method; type: nucleic-acid assay; conditions: Bos taurus
Calf thymus DNA [13] = assay: Binding affinity to calf thymus duplex DNA assessed as melting temperature at 5 mM by differential scanning calorimetry (reference value: 51 degC); type: nucleic-acid assay; conditions: Bos taurus
Calf thymus DNA [14] = assay: Binding affinity to calf thymus duplex DNA assessed as induction of red shift at 280 nanometer at 25 to 200 uM in pH 7 phosphate buffer by circular dichroism method; type: nucleic-acid assay; conditions: Bos taurus
Calf thymus DNA [15] = assay: Binding affinity to calf thymus duplex DNA assessed as induction of hyperchromic shift at 257 nanometer at 50 uM in pH 8.9 phosphate buffer by UV-vis spectrophotometric analysis; type: nucleic-acid assay; conditions: Bos taurus
Calf thymus DNA [16] = assay: Binding affinity to calf thymus duplex DNA assessed as red shift in soret peak at 50 uM in pH 7 phosphate buffer by UV-vis spectrophotometric analysis; type: nucleic-acid assay; conditions: Bos taurus
Calf thymus DNA [17] = assay: Binding affinity to calf thymus duplex DNA assessed as melting temperature at 1 mM by differential scanning calorimetry (reference value: 51 degC); type: nucleic-acid assay; conditions: Bos taurus
Calf thymus DNA [18] = assay: Binding affinity to calf thymus duplex DNA assessed as induction of hyperchromic shift at 257 nanometer at 50 uM in pH 5.4 phosphate buffer by UV-vis spectrophotometric analysis; type: nucleic-acid assay; conditions: Bos taurus
Bos taurus [19] = species on record: Bos taurus; assay: Binding affinity to calf thymus AT-rich duplex DNA assessed as induction of hyperchromicity at 25 to 200 uM in pH 7 phosphate buffer by circular dichroism method
Calf thymus DNA [20] = assay: Binding affinity to calf thymus duplex DNA assessed as induction of red shift in soret peak at 50 uM in pH 5.4 phosphate buffer by UV-vis spectrophotometric analysis; type: nucleic-acid assay; conditions: Bos taurus
Calf thymus DNA [21] = assay: Binding affinity to calf thymus duplex DNA assessed as induction of hyperchromic shift at 257 nanometer at 75 uM in pH 7 phosphate buffer by UV-vis spectrophotometric analysis; type: nucleic-acid assay; conditions: Bos taurus
Calf thymus DNA [22] = assay: Binding affinity to calf thymus duplex DNA assessed as induction of red shift in soret peak at 75 uM in pH 7 phosphate buffer by UV-vis spectrophotometric analysis; type: nucleic-acid assay; conditions: Bos taurus
Calf thymus DNA [23] = assay: Binding affinity to calf thymus duplex DNA assessed as induction of ellipticity at 350 nanometer at 25 to 200 uM in pH 7 phosphate buffer by circular dichroism method; type: nucleic-acid assay; conditions: Bos taurus
Calf thymus DNA [24] = assay: Binding affinity to calf thymus duplex DNA assessed as induction of ellipticity at 2.5 to 63 uM in pH 7 phosphate buffer by circular dichroism method; type: nucleic-acid assay; conditions: Bos taurus
Calf thymus DNA [25] = assay: Binding affinity to calf thymus duplex DNA assessed as melting temperature at 0.5 mM by differential scanning calorimetry (reference value: 51 degC); type: nucleic-acid assay; conditions: Bos taurus
Calf thymus DNA [26] = assay: Binding affinity to calf thymus duplex DNA assessed as change in melting temperature at 2.5 uM in pH 7 phosphate buffer by UV-vis spectrophotometric analysis; type: nucleic-acid assay; conditions: Bos taurus
Calf thymus DNA [27] = assay: Binding affinity to calf thymus duplex DNA assessed as induction of hyperchromicity at 25 to 200 uM in pH 7 phosphate buffer by circular dichroism method; type: nucleic-acid assay; conditions: Bos taurus

SMILES: c1ccc2c(-c3nccc4c3[nH]c3ccccc34)c[nH]c2c1
- Activity (Bos taurus [1]): inactive
- Activity (Calf thymus DNA [2]): inactive
- Activity (Calf thymus DNA [3]): Active
- Activity (Bos taurus [4]): inactive
- ΔTm (Calf thymus DNA [5]): 2.3 °C
- Activity (Calf thymus DNA [6]): Active
- Activity (Bos taurus [7]): inactive
- Activity (Calf thymus DNA [8]): Active
- Activity (Calf thymus DNA [9]): Dose-dependent effect
- Activity (Calf thymus DNA [10]): Active
- Activity (Calf thymus DNA [11]): Active
- Activity (Calf thymus DNA [12]): Active
- Tm (Calf thymus DNA [13]): 67 °C
- Activity (Calf thymus DNA [14]): Active
- Activity (Calf thymus DNA [15]): Active
- Activity (Calf thymus DNA [16]): 20 nm
- Tm (Calf thymus DNA [17]): 56 to 67 °C
- Activity (Calf thymus DNA [18]): Active
- Activity (Bos taurus [19]): inactive
- Activity (Calf thymus DNA [20]): Active

SMILES: c1ccc2c(c1)[nH]c1cnccc12
- Activity (Calf thymus DNA [21]): Active
- Activity (Calf thymus DNA [22]): Active
- Activity (Calf thymus DNA [23]): inactive

SMILES: CC[n+]1c(-c2ccccc2)c2cc(N)ccc2c2ccc(N)cc21
- Activity (Calf thymus DNA [24]): Active
- Tm (Calf thymus DNA [25]): 75 °C
- ΔTm (Calf thymus DNA [26]): 8.9 °C

SMILES: Cc1nccc2c1[nH]c1ccccc12
- Activity (Calf thymus DNA [3]): Active
- ΔTm (Calf thymus DNA [5]): 4 °C
- Tm (Calf thymus DNA [25]): 65 °C
- Activity (Calf thymus DNA [16]): Active
- Activity (Calf thymus DNA [23]): inactive

SMILES: C[n+]1ccc2c([nH]c3ccccc32)c1-c1c[nH]c2ccccc12
- Activity (Calf thymus DNA [27]): inactive
- Activity (Calf thymus DNA [23]): inactive

Reference: ChEMBL document CHEMBL4431382, “DNA-binding studies of the natural β-carboline eudistomin U” (Bioorg Med Chem Lett, 2016)
